In patent US20080194585A1, “Fungicidal Pyrazine Derivatives” (priority 2005, published 2008):
Marks after values point to notes of the source that are not given here.

Assays:
Plasmopara viticola = test: Test D: grape downy mildew, spray after inoculation of grape seedlings; format: in vivo
Text: Upon removal, disease ratings were made. […] A dash (-) indicates no test results.

[1] = tested on: Erysiphe graminis f. sp. tritici; test: Test L: wheat powdery mildew, preventive spray on wheat seedlings
[2] = tested on: Puccinia recondita f. sp. tritici; test: Test K: wheat leaf rust, preventive spray on wheat seedlings
Phytophthora infestans = test: whole plant or invertebrate; format: in vivo; conditions: for Test F disease control rating: 200 ppm
Botrytis cinerea = test: Test E: tomato botrytis, preventive spray on tomato seedlings
Rhizoctonia oryzae = test: Test G: turf brown patch, preventive spray on creeping bent grass seedlings
Method: (the causal agent of turf brown patch) and incubated in a saturated atmosphere at 27° C. for 24 h, and then moved to a growth chamber at 27° C. for 5 days, after which disease ratings were made.

[3] = tested on: Colletotrichum orbiculare; test: Test B: cucumber Colletotrichum anthracnose, preventive spray on cucumber seedlings; conditions: for Test B disease control rating: 200 ppm
Pythium aphanidermatum = test: Test A: bluegrass pythium blight, preventive spray on bluegrass seedlings; conditions: for Test A disease control rating: 200 ppm
fusarium graminearium = test: Test I: wheat head scab, preventive spray on wheat seedlings; conditions: for Test I disease control rating: 200 ppm
Method: (the causal agent of wheat head scab) and incubated in a saturated atmosphere at 20° C. for 72 h, and then moved to a growth chamber at 22° C. for 5 days, after which disease ratings were made.

Septoria nodorum = test: Test H: wheat glum blotch, preventive spray on wheat seedlings
Method: (the causal agent of wheat glum blotch) and incubated in a saturated atmosphere at 20° C. for 48 h, and then moved to a growth chamber at 22° C. for 5 days, after which disease ratings were made.

Septoria tritici = test: Test J: wheat leaf blotch, preventive spray on wheat seedlings; format: in vivo; conditions: 40 ppm (marked *); 100 = 100% disease control, 0 = no control
Text: A dash (-) indicates no test results.

[4] = 200 ppm, 100 = 100% disease control, 0 = no control relative to controls
[5] = 100 = 100% disease control, 0 = no control relative to controls
[6] = 40 ppm (marked *), 100 = 100% disease control, 0 = no control

Structure (SMILES) | Test D disease control rating (Plasmopara viticola; [4]) | Test L disease control rating [1, 4] | Test K disease control rating [2, 4] | Test F disease control rating (Phytophthora infestans; [5]) | Test E disease control rating (Botrytis cinerea; [4]) | Test G disease control rating (Rhizoctonia oryzae; [4]) | Test B disease control rating [3, 5] | Test A disease control rating (Pythium aphanidermatum; [5]) | Test I disease control rating (fusarium graminearium; [5]) | Test H disease control rating (Septoria nodorum; [4]) | other results
CC(C)=Nn1c(-c2c(F)cccc2F)c(Cl)nc(-n2cccn2)c1=O [Compound 392, 5-Chloro-6-(2,6-difluorophenyl)-1-[(1-methylethylidene)amino]-3-(1H-pyrazol-1-yl)-2(1H)-pyrazinone] |  |  |  |  |  |  |  |  |  |  | pest or weed control at 200 ppm (Plasmopara viticola; Plasmopara viticola, 168 h, 200 ppm, 100 = 100% disease control, 0 = no control relative to controls, read-out: Test D disease control rating): 0%; pest or weed control at 200 ppm ([1]; Blumeria graminis, in Triticum aestivum, 168 h, read-out: Test L disease control rating, 200 ppm, 100 = 100% disease control, 0 = no control relative to controls): 59%; pest or weed control at 200 ppm ([2]; Puccinia recondita, in Triticum aestivum, 192 h, read-out: Test K disease control rating): 99%; pest or weed control at 200 ppm (Phytophthora infestans; Phytophthora infestans, in Solanum lycopersicum, topical, 144 h, read-out: Test F disease control rating): 0%; pest or weed control at 200 ppm (Botrytis cinerea; Botrytis cinerea, in Solanum lycopersicum, topical, 72 h, read-out: Test E disease control rating): 99%; pest or weed control at 200 ppm (Rhizoctonia oryzae; Waitea circinata, in Agrostis stolonifera, topical, 144 h, read-out: Test G disease control rating, 200 ppm, 100 = 100% disease control, 0 = no control relative to controls): 69%; pest or weed control at 200 ppm ([3]; Colletotrichum orbiculare, in Cucumis sativus, 144 h, read-out: Test B disease control rating, 200 ppm, 100 = 100% disease control, 0 = no control relative to controls): 0%; pest or weed control at 200 ppm (Pythium aphanidermatum; Pythium aphanidermatum, 120 h, read-out: Test A disease control rating): 0%; pest or weed control at 200 ppm (fusarium graminearium; Fusarium, in Triticum aestivum, topical, 192 h, read-out: Test I disease control rating, 200 ppm, 100 = 100% disease control, 0 = no control relative to controls): 0%; pest or weed control at 200 ppm (Septoria nodorum; Parastagonospora nodorum, in Triticum aestivum, topical, 168 h, read-out: Test H disease control rating, 200 ppm, 100 = 100% disease control, 0 = no control relative to controls): 78%
CC(C)Cn1c(-c2c(F)cccc2F)c(Cl)nc(N2CCC=N2)c1=O [compound 4] |  |  |  |  |  |  |  |  |  |  | Test D disease control rating (Plasmopara viticola; 200 ppm): 12%; Test L disease control rating ([1]; 200 ppm): 96%; Test K disease control rating ([2]; 200 ppm): 98%; Test F disease control rating (Phytophthora infestans): 0%; Test E disease control rating (Botrytis cinerea; 200 ppm): 96%; Test G disease control rating (Rhizoctonia oryzae; 200 ppm): 99%; Test B disease control rating [3]: 0%; Test A disease control rating (Pythium aphanidermatum): 0%; Test I disease control rating (fusarium graminearium): 0%; Test H disease control rating (Septoria nodorum; 200 ppm): 99%
CCC(C)c1c(Cl)nc(-n2ccc(C)n2)c(=O)n1CC(C)C (centres unmarked) [compound 390] | 8% | 100% | 100% | 0% | 98% | 99% | 0% | 0% | 0% | 0% | 
CC(C)Cn1c(-c2c(F)cccc2F)c(I)nc(-c2ccccn2)c1=O [compound 401] |  | 98% |  | 0% | 96% | 85% | 0% |  | 0% | 95% | Test D disease control rating (Plasmopara viticola; [6]): 0* %; Test J disease control rating (Septoria tritici): 32* %
O=c1c(-n2cccn2)nc(Cl)c(-c2c(F)cc(F)cc2F)n1C1CCCCC1 [compound 418] | 47% | 100% | 99% | 0% | 99% | 99% | 99% | 0% | 0% | 100% | 
NC(=O)c1nc(Cl)c(-c2c(F)ccc(F)c2F)n(-c2ccccc2)c1=O [compound 419] | 32% |  |  | 95% |  |  |  | 100% | 73% |  | Test L disease control rating [1, 6]: 0* %; Test K disease control rating [2, 6]: 100* %; Test E disease control rating (Botrytis cinerea; [6]): 97* %; Test G disease control rating (Rhizoctonia oryzae; [6]): 0* %; Test H disease control rating (Septoria nodorum; [6]): 94* %
NC(=O)c1nc(Cl)c(-c2c(F)cc(F)cc2F)n(-c2ccccc2)c1=O [compound 420] | 31% |  |  | 100% |  |  |  | 98% | 60% |  | Test L disease control rating [1, 6]: 41* %; Test K disease control rating [2, 6]: 100* %; Test E disease control rating (Botrytis cinerea; [6]): 94* %; Test G disease control rating (Rhizoctonia oryzae; [6]): 0* %; Test H disease control rating (Septoria nodorum; [6]): 96* %
CCC(C)Cn1c(-c2ccc(OC)cc2F)c(Cl)nc(-n2cccn2)c1=O (centres unmarked) [compound 421] | 3% | 94% | 100% | 0% | 99% | 34% | 99% | 0% | 0% | 100% | 
